How the values were obtained:
[1] = biological target: T1, γ-secretase (Homo sapiens (Human), UniProt P49768); assay: In vitro γ-secretase assay, solubilized γ-secretase, ECL; assay type: biochemical; settings: Sb4 substrate
Source text: The γ-secretase cleaved Aβ product derived from C100Flag substrate was detected by a pair of antibodies (biotinylated 4G8 and ruthenylated G2-10*) while Sb4 cleaved product was detected by ruthenylated G2-10* alone (FIG. 10a) and quantified using electrochemiluminescence (ECL) technology.
An in vitro assay was based on the one previously reported by Li et al. (2000), except we utilized Sb4 substrate that eliminated the need for biotinylated antibody. […] All assays incorporate ruthenylated G2-10* antibody to detect 40-site cleavage of APP or recombinant Sb4 substrate and quantitated activity by measuring ECL.

[2] = biological target: T1, γ-secretase; assay: Exo-cell γ-secretase assay, HeLa cells, Sb4 substrate; assay type: cell-based
Experimental: Therefore, HeLa cells were first incubated with Sb4 substrate, as well as CHAPSO detergent as depicted in FIG. 14c. Cells were seeded at their indicated concentration in 96-well plates and allowed to attach overnight. The next day, media was removed and cells were washed once with PBS. Fresh media was then added containing 0.25% CHAPSO detergent, Sb4 substrate to a final concentration of 1 μM, and 1% DMSO or γ-secretase inhibitor. This was incubated for 2.5 hours at 37° C. Media was removed and cell debris was pelleted from this media for 5 min. at 3,500 rpm. Supernatant was then added to ruthenylated G2-10* antibody that recognizes cleaved product, but not uncleaved substrate. This was incubated for an additional 2 hours at room temperature. Finally, magnetic streptavidin beads were added to a final concentration of 80 μg/ml and incubated for 30 min. at room temperature. Assay buffer was added to the samples and γ-secretase-mediated cleavage of substrate was monitored using electrochemiluminescence (ECL) (Li et al., 2000). (FIG. 14c).
(§1) The potency of two structurally different GSIs was assayed in four unique γ-secretase activity assays. IC50 values were determined from the dose response curves using a non-linear regression analysis in the Prism software. An in vitro assay was based on the one previously reported by Li et al. (2000), except we utilized Sb4 substrate that eliminated the need for biotinylated antibody. The cell-based activity assay used N2A mouse neuroblastoma cells stably over-expressing APP and a biotinylated 4G8 antibody that binds the C-terminus of the amyloid beta peptide. The exo-cell assay incubated HeLa cells simultaneously with GSI, Sb4 substrate as well as 0.25% CHAPSO detergent prior to detecting substrate cleavage. Finally, the extended exo-cell assay first incubated HeLa cells with GSI for 24 hrs. Subsequently, the cells were washed 1× in PBS and then incubated with Sb4 substrate and CHAPSO detergent. The assay was then carried out exactly as described for the original exo-cell method. All assays incorporate ruthenylated G2-10* antibody to detect 40-site cleavage of APP or recombinant Sb4 substrate and quantitated activity by measuring ECL. The latter assays were performed as previously described (Li et al., 2000). In the in vitro assay, recombinant Sb4 substrate was incubated for 2.5 hours at 37° C. in pH 7.0 PIPES buffer in the presence of 0.25% CHAPSO detergent and solubilized γ-secretase at a final concentration of 40 ng/ul. The detection of cleaved substrate was determined using ruthenylated G2-10* antibody. Since the Sb4 substrate is biotinylated additional 6E10 biotinylated antibody used in earlier assays is not required. In the cell-based assay, N2A mouse neuroblastoma cells that stably overexpress amyloid precursor protein were incubated with γ-secretase inhibitors in a final concentration of 1% DMSO for 24 hrs. Following incubation, the supernatant was removed from the cells and assayed for Aβ40, the cleaved APP product, using ruthenylated G2-10* antibody as well as biotinylated 4G8 antibody.

[3] = biological target: T1, γ-secretase; assay: Extended exo-cell γ-secretase assay, HeLa cells; assay type: cell-based
Experimental: as §1, with “In the cell-based assay, N2A mouse neuroblastoma cells that stably overexpress amyloid precursor protein were incubated with γ-secretase inhibitors in a final concentration of 1% DMSO for 24 hrs. Following incubation, the supernatant was removed from the cells and assayed for Aβ40, the cleaved APP product, using ruthenylated G2-10* antibody as well as biotinylated 4G8 antibody.” left out
The exo-cell assay was adapted to monitor real-time γ-secretase activity and inhibition over extended times of pretreatment regimens. […] This modified, extended treatment exo-cell assay is capable of quantifying remaining γ-secretase activity following drug treatment on virtually any cell type. The IC50 values for Compound E and GSI-34 were calculated using the extended exo-cell assay (Table 3 and FIG. 15d). […]

[4] = biological target: γ-secretase (Homo sapiens (Human), UniProt P49768+Q92542); assay: Photoaffinity labeling of γ-secretase in HeLa membrane by Aβ17-23BPA20-biotin; assay type: binding; settings: inhibitor at 2 μM
Experimental: FIG. 4. […] Various concentrations of inhibitor were incubated with APP substrate (S4) or Notch peptide substrate containing the C-terminal biotinylated transmembrane domain of Notch1 and HeLa cell membrane in the presence of 0.25% CHAPSO. Aβ40 was detected by G2-10 antibody. The cleaved Notch product was detected by Val1744 antibody that specifically recognizes the cleaved product between Gly1743 and Val1744. Activities are expressed as percentage relative to reading that was produced in DMSO control. […] Various concentrations of S4 substrate were incubated with HeLa membrane in fixed concentrations of inhibitor as indicated. The double reciprocal velocity (1/v) and substrate concentrations (1/S) are plotted to determine the type of inhibition. […] Assays were conducted as described in FIG. 4A. […] The labeled samples were solubilized with RIPA buffer. Biotinylated proteins were captured with streptavidin-agarose and probed by immunoblotting using antibodies against biotin, PS1-CTF, PS1-NTF, Nicastrin, PEN-2 and APH-1a. HeLa cell membrane proteins were directly loaded onto lanes indicated by an arrow in the PEN-2 and APH-1a blots as positive controls. […] Upper panel: PS1-NTF; Lower panel: PS1-CTF.
The labeled proteins were eluted with 2×SDS sample buffer and analyzed with Western blotting using antibodies against the components of γ-secretase complex. Protein concentration was determined with the Dc protein assay kit (Bio-Rad)
After the photolyzed membranes were solubilized, biotinylated proteins were captured, eluted and analyzed by western blotting with antibodies against biotin, PS1, nicastrin, PEN-2 and APH-1.

CC(NC(=O)Cc1cc(F)cc(F)c1)C(=O)NC1N=C(c2ccccc2)c2ccccc2N(C)C1=O (stereo not shown) [Compound E]
IC50 [1]: 1.2 nM
IC50 ([2]; ECL detection, read-out: Exo-Cell (nM), IC50): 3.8 nM
IC50 ([2]; IC50, exo-cell assay, HTRF detection): 5.4 nM
IC50 ([2]; read-out: Exo-Cell (nM), IC50, ECL detection): 3.8 nM
IC50 ([3]; 24 hrs pretreatment, read-out: Extended Exo-Cell (nM), IC50): 2.8 nM
IC50 ([3]; Extended Exo-Cell (nM), IC50, 24 hrs pretreatment): 2.83 nM
block of photo-crosslinking of PS1-CTF and PS1-NTF by Aβ17-23BPA20-biotin [4]: completely blocked

Source: US9023767B2, “γ-Secretase substrates and methods of use” (Memorial Sloan-Kettering Cancer Center, priority 2009, dated 2015)
